Source: ChEMBL document CHEMBL3421552, “Penicitols A-C and penixanacid A from the mangrove-derived Penicillium chrysogenum HDN11-24” (J Nat Prod, 2015)

What was measured:
[1] = Cytotoxic activity against human Bel7402 cells by MTT method; settings: Bel-7402
[2] = Cytotoxic activity against human HCT116 cells by SRB method; type: functional, cell-based; settings: HCT-116
A549 = test: Cytotoxic activity against human A549 cells by SRB method
HeLa = test: Cytotoxic activity against human HeLa cells by MTT method; type: functional, cell-based
HEK293 = test: Cytotoxic activity against human HEK293 cells by SRB method; type: cell-based

| Structure (SMILES) | IC50 [1] [µM] | IC50 [2] [µM] | IC50 (A549) [µM] | IC50 (HeLa) [µM] | IC50 (HEK293) [µM] |
| --- | --- | --- | --- | --- | --- |
| CO[C@]12CCCC[C@H]1[C@H]1O[C@H](C)[C@@H](C)c3c(O)c(O)cc(c31)O2 | 10.5 | 5.6 | 7.6 | 4.6 | 6.7 |
| Cc1c(O)c(O)c(Oc2cc(O)c(C)c3c2C(=O)O[C@H](C)[C@H]3C)c2c1[C@H](C)[C@@H](C)O2 | 7 | 3.5 | 9.6 | 3.4 | 6.4 |
| CO[C@H]1CCc2oc(=O)c3c(O)cc(C)cc3c21 | 40.5 | 22.5 | 10.8 | 12.6 | 31.4 |
| COC(=O)c1ccc2c(=O)c3cc(O)cc(C(=O)O)c3oc2c1O | 30.6 | 19 | 16.9 | 10 | 28.5 |
| CO[C@@]1(C)C[C@H]2O[C@H](C)[C@@H](C)c3c(C)c(O)cc(c32)O1 | > 50 | > 50 | > 50 | 35.5 | 42.5 |
| CO[C@]1(C)C[C@H]2O[C@H](C)[C@@H](C)c3c(C)c(O)cc(c32)O1 | 46.6 | > 50 | > 50 | 45 | 32.6 |
| COc1cccc2c1C(=O)c1c(O)c3c(c(O)c1C2=O)C[C@@](O)(C(=O)CO)C[C@@H]3O[C@H]1C[C@H](N)[C@H](O)[C@H](C)O1 [DOXORUBICIN] |  | 0.2 |  | 0.5 | 0.04 |
